Read-outs that look alike come from different tables or passages of the source. No end group written: not given here.
Experiments:
[1] = tested on: putative serine protease in Staphylococcus nepalensis culture supernatant; format: biochemical
[2] = Half-life of corisin in vitro in a cell culture system; format: in vitro ADME, human; set-up: Corisin concentration in cell culture medium: unit not given here; settings: enzyme immunoassay; for Corisin concentration in cell culture medium: A549 culture, 10 µg/ml added
Experimental: We assessed the half-life of corisin in a cell culture system to determine the elimination rate of corisin from a solution in a cell culture system. A549 alveolar epithelial cells were cultured up to confluence in DMEM supplemented with 10% heat-inactivated FBS. The cells were then washed and cultured in FBS (−) DMEM. Corisin was then inoculated into the cell culture medium at a final concentration of 10 µg/ml, and the cell supernatant was sampled after 0, 1, 3, 6, 12, and 24 h. The concentration of corisin was measured by enzyme immunoassay, and the half-life of corisin was determined.

[3] = 0.1, 0.3, 1 mM, 0.5, 1 and 2 h at 37 °C, silver staining

Compound: CC(C)C[C@H](NC(=O)[C@H]1O[C@@H]1C(=O)O)C(=O)NCCCCN=C(N)N [E-64]
- Inhibition ([1]; 0h, 3uM): 0
- Inhibition ([1]; 0h, 10uM): 0
- Inhibition ([1]; 0h, 30uM): 0
- Effect on transglycosylase degradation by S. nepalensis culture supernatant [1, 3]: neither E-64 nor EDTA suppressed
- Inhibition ([1]; 0.5h, 3uM): 0
- Inhibition ([1]; 0.5h, 10uM): 0
- Inhibition ([1]; 0.5h, 30uM): 0
- Inhibition ([1]; 1h, 3uM): 0
- Inhibition ([1]; 1h, 10uM): 0
- Inhibition ([1]; 1h, 30uM): 0.2
- Inhibition ([1]; 2h, 3uM): 0
- Inhibition ([1]; 2h, 10uM): 0
- Inhibition ([1]; 2h, 30uM): 0.03

Compound: O=C(O)CN(CCN(CC(=O)O)CC(=O)O)CC(=O)O [EDTA, ethylenediaminetetraacetic acid]
- Effect on transglycosylase degradation by S. nepalensis culture supernatant [1]: neither E-64 nor EDTA suppressed

Compound: Cl.NCCc1ccc(S(=O)(=O)F)cc1 [pefabloc SC]
- Effect on transglycosylase degradation by S. nepalensis culture supernatant [1, 3]: suppress transglycosylase degradation

Compound: Cl.NCCc1ccc(S(=O)(=O)F)cc1 [pefabloc]
- Inhibition ([1]; 0h, 0.1mM): 0
- Inhibition ([1]; 0h, 0.3mM): 0
- Inhibition ([1]; 0h, 1mM): 0
- Inhibition ([1]; 0.5h, 0.1mM): 53.32
- Inhibition ([1]; 0.5h, 0.3mM): 87.64
- Inhibition ([1]; 0.5h, 1mM): 98.7
- Inhibition ([1]; 1h, 0.1mM): 56.04
- Inhibition ([1]; 1h, 0.3mM): 90.52
- Inhibition ([1]; 1h, 1mM): 98.55
- Inhibition ([1]; 2h, 0.1mM): 52.92
- Inhibition ([1]; 2h, 0.3mM): 90.94
- Inhibition ([1]; 2h, 1mM): 99.04

Compound: IVMPESSGNPNAVNPAGYR [corisin]
- Half-life in solution in a human alveolar cell culture system ([2]; 10 µg/ml in FBS(-) DMEM on A549 cells): < 60 min
- Corisin concentration in cell culture medium ([2]; time 1 h): 3931.8
- Corisin concentration in cell culture medium ([2]; time 3 h): 2007.7
- Corisin concentration in cell culture medium ([2]; time 6 h): 1433.4
- Corisin concentration in cell culture medium ([2]; time 12 h): 1485.2
- Corisin concentration in cell culture medium ([2]; time 24 h): 1357.9
- half-life at 10 µg/ml ([2]; human, 10 µg/ml in FBS(-) DMEM on confluent A549 cells, sampled 0-24 h, exponential decay model, n = 4 per time point, read-out: Half-life in A549 epithelial cell culture medium (converted)): 42 min
